Measured values reported in US11679110B2, “Methods of treating disorders using CSF1R inhibitors” (Deciphera Pharmaceuticals, LLC, priority 2018, dated 2023).
Read-outs that look alike come from different tables or passages of the source.

Key:
[1] = test system: CD11b+/F4/80+ intratumoral macrophages; assay: Syngeneic MC38 mouse model of colorectal cancer, tumor-associated macrophages by flow cytometry, 7 days of treatment; assay type: in vivo; conditions: MC38 mice, seven days
Experimental: The protocol and procedures involving the care and use of animals in the syngeneic MC38 mouse xenograft models below were reviewed and approved by the Institutional Animal Care and Use Committee (IACUC) of CrownBio (Taicang Jiangsu Province, China) prior to conduct. During the study, the care and use of animals was conducted in accordance with the regulations of the Association for Assessment and Accreditation of Laboratory Animal Care (AAALAC). All mice had food and water ad libitum. […] In the first experiment, six- to eight-week old female C57BL/6 mice were inoculated subcutaneously in the right lower flank with one million MC38 tumor cells in Phosphate Buffered Saline. […] Tumor volume and body weight were measured thrice weekly. Tumor burden (mg) was estimated from caliper measurements by the formula: tumor burden (mg=mm^3)=(length×width^2)/2. Tumors were collected at 2 hours post the 7th dose on day 18 and freshly processed to assess infiltrating tumor-associated macrophages by flow cytometry using antibodies to CD11b+, F4/80, and CD45+. First, tumors were washed in phosphate-buffered saline and treated with collagenase and DNase. After treatment, cells were repeatedly passed through a 70 μm cell strainer. Cells were further washed, resuspended in red blood cell lysing buffer, then washed again. […]

[2] = rat, in vivo
[3] = test system: CD16+ monocytes; assay: Depletion of CSF1R-expressing (CD16+) monocytes in peripheral blood of patients, flow cytometry; assay type: in vivo, human; conditions: C2D1 compared to C1D1
Experimental: PK analysis was conducted on all 38 patients. Serial blood samples were collected for PK and took place on either Day −7, Cycle 1, Day 1 (C1D1) and C2D1 at pre-dose, 0.5, 1, 2, 4, 6, 8, 10-12, and 24 hr time points or Day −7, C1D1, C1D8, and C2D1 at pre-dose, 1, 2, 4, 6, and 8 hr time points, or C1D1, C1D8, and C2D1 at pre-dose, 1, 2, 4, 6, and 8 hr time points. High fat meal was given prior to dosing of Compound 1 on Day −7. PD effects were measured by two methodologies: 1) depletion of CSF1R-expressing monocytes in peripheral blood (Cohorts 1-7) from C1D1, C1D15 and C2D1; and 2) increase of plasma levels of CSF1 and IL-34, the ligands for CSF1R (Cohorts 1-7) on C1D1, C1D15, and C2D1. For the CD16^+ monocyte assay, whole blood collected in an EDTA vacutainer was aliquoted into tubes and incubated with fluorescently-labeled antibodies (CD14-Alexa488 (BD Pharmingen); CD16-PE-Cy7 (BD Pharmingen); and TIE2-APC (R&D Systems). After incubation, red blood cells were lysed, and the remaining cells were washed several times before being analyzed on a flow cytometer. For the plasma CSF1 assay or IL-34, whole blood collected in an EDTA vacutainer was centrifuged, and the plasma was collected and frozen. Plasma levels of CSF1 or IL-34 were measured using a commercial ELISA kit (R&D Systems).

[4] = in vivo; conditions: Sprague-Dawley, rat
[5] = dog, 13-week
[6] = dog, in vivo
[7] = biological target: unphosphorylated c-KIT kinase (Homo sapiens (Human), UniProt P10721); assay: c-KIT kinase assay, coupled pyruvate kinase/lactate dehydrogenase; assay type: biochemical; conditions: enzymatic assay, 1 mM ATP
[8] = dog
[9] = human, in vivo
[10] = in vivo; conditions: beagle, dog

unphosphorylated c-KIT kinase, sequence (P10721 other isoform, or with tags, fused parts or gaps): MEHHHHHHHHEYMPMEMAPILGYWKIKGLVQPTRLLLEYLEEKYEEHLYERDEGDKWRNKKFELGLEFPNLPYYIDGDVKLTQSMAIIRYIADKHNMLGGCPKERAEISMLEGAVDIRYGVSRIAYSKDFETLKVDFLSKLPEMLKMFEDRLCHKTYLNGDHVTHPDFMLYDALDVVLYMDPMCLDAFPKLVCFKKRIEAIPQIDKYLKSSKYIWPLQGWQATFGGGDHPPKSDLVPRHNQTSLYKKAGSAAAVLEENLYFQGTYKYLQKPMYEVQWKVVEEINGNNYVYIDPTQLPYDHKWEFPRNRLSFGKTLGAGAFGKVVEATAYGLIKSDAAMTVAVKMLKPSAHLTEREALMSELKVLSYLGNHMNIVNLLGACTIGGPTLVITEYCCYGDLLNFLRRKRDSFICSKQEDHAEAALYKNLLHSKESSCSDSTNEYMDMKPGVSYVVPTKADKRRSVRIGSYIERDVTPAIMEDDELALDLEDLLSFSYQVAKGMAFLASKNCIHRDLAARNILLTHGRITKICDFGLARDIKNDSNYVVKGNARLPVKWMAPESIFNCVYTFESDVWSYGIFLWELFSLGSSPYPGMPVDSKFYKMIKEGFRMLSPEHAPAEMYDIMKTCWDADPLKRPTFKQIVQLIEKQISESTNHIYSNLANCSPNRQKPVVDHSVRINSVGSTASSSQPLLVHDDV

## Cc1nc(-c2cnc(NC(C)C)n(C)c2=O)ccc1Oc1ccnc(-c2cnn(C)c2)c1 [Compound 1, 2-(isopropylamino)-3-methyl-5-(6-methyl-5-((2-(1-methyl-1H-pyrazol-4-yl)pyridin-4-yl)oxy)pyridin-2-yl)pyrimidin-4(3H)-one]
[1]; 5, 10, 15 mg/kg QD oral
  reduction in CD11b+/F4/80+ intratumoral macrophages (as a percent of CD45+ cells in the tumor): dose-dependent reduction
[1]; high dose (15 mg/kg QD oral)
  reduction of intratumoral macrophages (as a percent of CD45+ cells in the tumor): ~67%
[2]; Sprague-Dawley, 13 weeks
  STD10: 7.5 mg/kg/day
[2]
  increases in AST, ALT, GLDH and ALP activities: minimal or mild
[3]; Cohort 2
  decrease in levels of CSF1R-expressing monocytes: ~48%
[3]; Cohort 3
  decrease in levels of CSF1R-expressing monocytes: ~54%
[3]; Cohort 4
  decrease in levels of CSF1R-expressing monocytes: ~79%
[3]; Cohort 5
  decrease in levels of CSF1R-expressing monocytes: ~98%
[4]
  NOAEL at 4 weeks: 5 mg/kg/day
[5]
  microscopic liver changes: without corresponding microscopic liver changes
[5]; 8 mg/kg/day
  increases in AST, GLDH and creatine kinase activities: minimal or mild
[6]; beagle, 4 weeks
  HNSTD (Highest Non-Serious Toxic Dose): 7.5 mg/kg/day
[6]
  safety margin at NOAEL/HNSTD relative to clinical exposure (AUC): about 2.1 ×
[7]
  IC50: 864 nM
[8]; beagle, in vivo
  NOAEL at 4 weeks: 7.5 mg/kg/day
[8]; 4-week
  hepatocellular injury in microscopic histology exams: not evident
[8]; 4-week, ≥2.5 mg/kg/day
  AST activity: minimally to mildly increased
[8]; 4-week, ≥7.5 mg/kg/day
  ALT and GLDH activity: minimally increased
[9]
  Grade 3/4 elevated AST/ALT events, elevated bilirubin levels or hepatic AEs: did not exhibit
[10]
  NOAEL at 13 weeks: 8 mg/kg/day
